Experimental data from ChEMBL document CHEMBL1201862, “PubChem BioAssay data set” (2004).
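In this assay, cells in 96-well plates receive the compound at five concentrations for 48 hours. Endpoints are linearly interpolated between the surrounding concentrations. Here, GI50 denotes the concentration required for 50% inhibition of growth.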 Calls of active or inactive are those of the source. No stated cut-off is given here; in the data, active = GI50 up to about 1.1 µM and inactive = higher.

Assays:
Assay in all cases: inhibition of tumour cell growth, NCI panel, 48 h
COLO 205 = test system: COLO 205
HOP-92 = test system: HOP-92
DLD-1 = test system: DLD-1
RPMI-8226 = test system: RPMI-8226
K562 = test system: K562
SK-MEL-28 = test system: SK-MEL-28
MOLT-4 = test system: MOLT-4
HCT-15 = test system: HCT-15
SK-MEL-5 = test system: SK-MEL-5
HL-60 = test system: HL-60
HOP-18 = test system: HOP-18
KM12 = test system: KM12
SW-620 = test system: SW-620
786-0 = test system: 786-0
SK-OV-3 = test system: SK-OV-3
M14 = test system: M14
DMS-114 = test system: DMS-114
TK-10 = test system: TK-10
UO-31 = test system: UO-31
HCT-116 = test system: HCT-116
Malme-3M = test system: Malme-3M
A498 = test system: A498
SF-539 = test system: SF-539
M19-MEL = test system: M19-MEL
SNB-78 = test system: SNB-78
RXF 393 = test system: RXF 393
OVCAR-8 = test system: OVCAR-8
DMS-273 = test system: DMS-273
SNB-75 = test system: SNB-75
CCRF-CEM = test system: CCRF-CEM
NCI-H226 = test system: NCI-H226
OVCAR-3 = test system: OVCAR-3
NCI-H522 = test system: NCI-H522
U-251 = test system: U-251
SF-295 = test system: SF-295
SN12C = test system: SN12C
UACC-62 = test system: UACC-62
NCI-H23 = test system: NCI-H23
A549 = test system: A549
LXFL 529 = test system: LXFL 529
ACHN = test system: ACHN
NCI-H460 = test system: NCI-H460
IGROV-1 = test system: IGROV-1
HT-29 = test system: HT-29
LOX IMVI = test system: LOX IMVI
CAKI-1 = test system: CAKI-1
UACC-257 = test system: UACC-257
EKVX = test system: EKVX
HOP-62 = test system: HOP-62
HCC 2998 = test system: HCC 2998
SNB-19 = test system: SNB-19
OVCAR-4 = test system: OVCAR-4
KM-20L2 = test system: KM-20L2
OVCAR-5 = test system: OVCAR-5
SF-268 = test system: SF-268
SK-MEL-2 = test system: SK-MEL-2

## Cc1cc(O)cc2c1O[C@@]1(C)CCC3[C@@]4(C)CC[C@H](O)C(C)(C)C4CC[C@@]3(C)[C@H]1C2 (stereo partly drawn)
COLO 205
  GI50: 17.5 µM (inactive)
HOP-92
  GI50: 5.09 µM (inactive)
DLD-1
  GI50: 4.06 µM (inactive)
RPMI-8226
  GI50: 2.18 µM (inactive)
K562
  GI50: 2.47 µM (inactive)
SK-MEL-28
  GI50: 6.82 µM (inactive)
MOLT-4
  GI50: 1.55 µM (inactive)
HCT-15
  GI50: 3.03 µM
SK-MEL-5
  GI50: 5.61 µM (inactive)
HL-60
  GI50: 2.99 µM (inactive)
HOP-18
  GI50: 14.7 µM (inactive)
KM12
  GI50: 4.31 µM (inactive)
SW-620
  GI50: 6.14 µM (inactive)
786-0
  GI50: 2.32 µM (inactive)
SK-OV-3
  GI50: 3.4 µM (inactive)
M14
  GI50: 11.3 µM (inactive)
DMS-114
  GI50: 5.09 µM (inactive)
TK-10
  GI50: 12.5 µM (inactive)
UO-31
  GI50: 8.45 µM (inactive)
HCT-116
  GI50: 4.31 µM (inactive)
Malme-3M
  GI50: 9.06 µM (inactive)
A498
  GI50: 19.6 µM (inactive)
SF-539
  GI50: 2.23 µM (inactive)
M19-MEL
  GI50: 11 µM (inactive)
SNB-78
  GI50: 5.98 µM (inactive)
RXF 393
  GI50: 3.56 µM (inactive)
OVCAR-8
  GI50: 8.45 µM (inactive)
DMS-273
  GI50: 4.05 µM (inactive)
SNB-75
  GI50: 3.03 µM (inactive)
CCRF-CEM
  GI50: 2.55 µM (inactive)
NCI-H226
  GI50: 10.7 µM (inactive)
OVCAR-3
  GI50: 6.31 µM (inactive)
NCI-H522
  GI50: 6.52 µM (inactive)
U-251
  GI50: 2.84 µM (inactive)
SF-295
  GI50: 2.35 µM (inactive)
SN12C
  GI50: 11.6 µM (inactive)
UACC-62
  GI50: 8.11 µM (inactive)
NCI-H23
  GI50: 10 µM (inactive)
A549
  GI50: 5.15 µM (inactive)
LXFL 529
  GI50: 2.85 µM (inactive)
ACHN
  GI50: 5.24 µM (inactive)
NCI-H460
  GI50: 4.41 µM (inactive)
IGROV-1
  GI50: 13.5 µM (inactive)
HT-29
  GI50: 13.3 µM (inactive)
LOX IMVI
  GI50: 6.07 µM (inactive)
CAKI-1
  GI50: 6.81 µM (inactive)
UACC-257
  GI50: 12.9 µM (inactive)
EKVX
  GI50: 12.6 µM (inactive)

## CC(=O)Nc1ccc(-c2nnc(SCC(=O)Nc3cccc(Cl)c3)o2)cc1
COLO 205
  GI50: 16.6 µM (inactive)
DLD-1
  GI50: 14.3 µM (inactive)
RPMI-8226
  GI50: 15 µM (inactive)
K562
  GI50: 14.4 µM (inactive)
SK-MEL-28
  GI50: 17.9 µM (inactive)
MOLT-4
  GI50: 19.1 µM (inactive)
HCT-15
  GI50: 14.9 µM
SK-MEL-5
  GI50: 13.9 µM (inactive)
HL-60
  GI50: 18.2 µM (inactive)
HOP-18
  GI50: 12.6 µM (inactive)
KM12
  GI50: 16 µM (inactive)
SW-620
  GI50: 13.5 µM (inactive)
786-0
  GI50: 6.49 µM (inactive)
SK-OV-3
  GI50: 38 µM (inactive)
M14
  GI50: 11.8 µM (inactive)
DMS-114
  GI50: 1.36 µM (inactive)
HOP-62
  GI50: 19.7 µM (inactive)
HCC 2998
  GI50: 18.6 µM (inactive)
TK-10
  GI50: 19.6 µM (inactive)
UO-31
  GI50: 27.7 µM (inactive)
HCT-116
  GI50: 12.9 µM (inactive)
Malme-3M
  GI50: 12.4 µM (inactive)
SNB-19
  GI50: 22 µM (inactive)
A498
  GI50: 16.3 µM (inactive)
SF-539
  GI50: 20.1 µM (inactive)
M19-MEL
  GI50: 17.3 µM (inactive)
SNB-78
  GI50: > 100 µM (inactive)
RXF 393
  GI50: 17.4 µM (inactive)
OVCAR-4
  GI50: 17.9 µM (inactive)
OVCAR-8
  GI50: 33.2 µM (inactive)
DMS-273
  GI50: 17.9 µM (inactive)
SNB-75
  GI50: 20 µM (inactive)
CCRF-CEM
  GI50: 6.18 µM (inactive)
KM-20L2
  GI50: 15.3 µM (inactive)
NCI-H226
  GI50: 17.7 µM (inactive)
OVCAR-3
  GI50: 7.11 µM (inactive)
NCI-H522
  GI50: 5.86 µM (inactive)
OVCAR-5
  GI50: 20.7 µM (inactive)
U-251
  GI50: 9.84 µM (inactive)
SF-295
  GI50: 18.8 µM (inactive)
SN12C
  GI50: 16 µM (inactive)
UACC-62
  GI50: 15.4 µM (inactive)
NCI-H23
  GI50: 9.79 µM (inactive)
A549
  GI50: 18.7 µM (inactive)
SF-268
  GI50: 13.7 µM (inactive)
LXFL 529
  GI50: 10.9 µM (inactive)
ACHN
  GI50: 15.2 µM (inactive)
NCI-H460
  GI50: 13.1 µM (inactive)
IGROV-1
  GI50: 8.97 µM (inactive)
HT-29
  GI50: 17.2 µM (inactive)
LOX IMVI
  GI50: 10.3 µM (inactive)
CAKI-1
  GI50: 19.1 µM (inactive)
SK-MEL-2
  GI50: 20 µM (inactive)
UACC-257
  GI50: 17.3 µM (inactive)
EKVX
  GI50: 25.3 µM (inactive)
